# Reference: the kinase profiling compilation of Christmann-Franck et al. (2016)
# Columns and labels:
# Experiment in all cases: radiometric filter-binding kinase assay, Kinase HotSpot
# Conditions in all cases: compound 0.5 µM; ATP 10 µM
# [1] = molecular target: AKT3 (human) (UniProt Q9Y243)
# [2] = molecular target: AURKA (human) (UniProt O14965)
# [3] = molecular target: AURKB (human) (UniProt Q96GD4)
# [4] = molecular target: BLK (human) (UniProt P51451)
# [5] = molecular target: CAMKK1 (human) (UniProt Q8N5S9)
# [6] = molecular target: CDC42BPB (human) (UniProt Q9Y5S2)
# [7] = molecular target: CDK5 CDK5R1 p25 (human) (UniProt Q00535+Q15078)
# [8] = molecular target: CSNK1A1 (human) (UniProt P48729)
# [9] = molecular target: CSNK1D (human) (UniProt P48730)
# [10] = molecular target: CSNK1E (human) (UniProt P49674)
# [11] = molecular target: DAPK1 (human) (UniProt P53355)
# [12] = molecular target: DMPK (human) (UniProt Q09013)
# [13] = molecular target: DYRK1A (human) (UniProt Q13627)
# [14] = molecular target: EPHB2 (human) (UniProt P29323)
# [15] = molecular target: FES (human) (UniProt P07332)
# [16] = molecular target: FGR (human) (UniProt P09769)
# [17] = molecular target: FLT1 (human) (UniProt P17948)
# [18] = molecular target: GSK3A (human) (UniProt P49840)
# [19] = molecular target: HIPK2 (human) (UniProt Q9H2X6)
# [20] = molecular target: INSRR (human) (UniProt P14616)
# [21] = molecular target: JAK1 JH1 catalytic (human) (UniProt P23458)
# [22] = molecular target: JAK2 JH1 JH2 (human) (UniProt O60674)
# [23] = molecular target: MAP2K2 (human) (UniProt P36507)
# [24] = molecular target: MAP3K11 (human) (UniProt Q16584)
# [25] = molecular target: MAP3K2 (human) (UniProt Q9Y2U5)
# [26] = molecular target: MAPK11 (human) (UniProt Q15759)
# [27] = molecular target: MET (human) (UniProt P08581)
# [28] = molecular target: MLTK (human) (UniProt Q9NYL2)
# [29] = molecular target: MYLK2 (human) (UniProt Q9H1R3)
# [30] = molecular target: OXSR1 (human) (UniProt O95747)
# [31] = molecular target: PDGFRB (human) (UniProt P09619)
# [32] = molecular target: PIM2 (human) (UniProt Q9P1W9)
# [33] = molecular target: PRKCD (human) (UniProt Q05655)
# [34] = molecular target: PRKG2 (human) (UniProt Q13237)
# [35] = molecular target: PTK2 (human) (UniProt Q05397)
# [36] = molecular target: RAF1 (human) (UniProt P04049)
# [37] = molecular target: RPS6KA2 KD1 KD2 (human) (UniProt Q15349)
# [38] = molecular target: SGK3 (human) (UniProt Q96BR1)
# [39] = molecular target: SRC (human) (UniProt P12931)
# [40] = molecular target: STK4 (human) (UniProt Q13043)
# [41] = molecular target: TGFBR1 (human) (UniProt P36897)
# [42] = molecular target: YES1 (human) (UniProt P07947)
# RPS6KA2 KD1 KD2 (human), sequence (Q15349 whole entry, looked up): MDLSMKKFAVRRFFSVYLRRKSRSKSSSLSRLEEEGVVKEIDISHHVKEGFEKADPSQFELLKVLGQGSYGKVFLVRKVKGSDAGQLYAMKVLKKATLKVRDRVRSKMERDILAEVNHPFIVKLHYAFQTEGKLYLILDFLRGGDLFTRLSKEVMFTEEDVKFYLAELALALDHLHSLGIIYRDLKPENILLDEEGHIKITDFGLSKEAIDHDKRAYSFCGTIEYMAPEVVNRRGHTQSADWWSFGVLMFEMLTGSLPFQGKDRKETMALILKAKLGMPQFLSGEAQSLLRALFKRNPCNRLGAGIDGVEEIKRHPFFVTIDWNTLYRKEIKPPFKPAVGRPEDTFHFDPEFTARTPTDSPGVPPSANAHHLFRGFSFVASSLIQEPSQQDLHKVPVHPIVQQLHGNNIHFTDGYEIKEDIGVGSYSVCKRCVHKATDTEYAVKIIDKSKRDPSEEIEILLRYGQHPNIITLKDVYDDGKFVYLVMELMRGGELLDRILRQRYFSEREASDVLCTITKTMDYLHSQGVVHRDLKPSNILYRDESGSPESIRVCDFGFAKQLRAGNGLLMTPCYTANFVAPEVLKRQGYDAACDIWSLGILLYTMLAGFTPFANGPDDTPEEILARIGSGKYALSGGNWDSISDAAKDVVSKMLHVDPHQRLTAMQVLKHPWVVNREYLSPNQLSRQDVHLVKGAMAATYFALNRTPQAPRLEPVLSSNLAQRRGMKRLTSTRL
# FGR (human), sequence (P09769 whole entry, looked up): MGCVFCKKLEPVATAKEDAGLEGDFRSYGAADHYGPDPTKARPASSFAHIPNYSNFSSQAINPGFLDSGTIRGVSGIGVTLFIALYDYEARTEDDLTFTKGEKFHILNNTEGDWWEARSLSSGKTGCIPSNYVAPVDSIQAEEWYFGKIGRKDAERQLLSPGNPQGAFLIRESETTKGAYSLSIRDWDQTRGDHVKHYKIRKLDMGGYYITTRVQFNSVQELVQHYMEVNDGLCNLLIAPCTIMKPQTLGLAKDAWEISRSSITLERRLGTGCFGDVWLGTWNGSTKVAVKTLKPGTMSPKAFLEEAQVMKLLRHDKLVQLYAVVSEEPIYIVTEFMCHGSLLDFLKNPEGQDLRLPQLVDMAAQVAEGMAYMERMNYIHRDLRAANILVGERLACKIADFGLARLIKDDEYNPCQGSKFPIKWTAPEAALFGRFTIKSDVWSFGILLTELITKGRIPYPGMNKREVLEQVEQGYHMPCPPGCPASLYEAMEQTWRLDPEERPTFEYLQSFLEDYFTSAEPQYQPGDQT
# CSNK1E (human), sequence (P49674 whole entry, looked up): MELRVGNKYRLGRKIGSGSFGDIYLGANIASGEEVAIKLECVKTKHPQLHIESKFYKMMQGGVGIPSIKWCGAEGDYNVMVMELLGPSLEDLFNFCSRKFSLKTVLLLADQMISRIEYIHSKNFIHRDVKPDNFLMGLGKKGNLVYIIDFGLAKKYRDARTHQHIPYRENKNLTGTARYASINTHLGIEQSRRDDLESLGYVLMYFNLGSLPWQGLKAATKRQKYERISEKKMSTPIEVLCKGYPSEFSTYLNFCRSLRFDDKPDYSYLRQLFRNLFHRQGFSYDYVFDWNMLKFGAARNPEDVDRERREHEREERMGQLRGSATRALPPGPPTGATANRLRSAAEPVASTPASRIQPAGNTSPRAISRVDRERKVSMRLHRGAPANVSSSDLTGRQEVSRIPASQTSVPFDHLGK
# PRKCD (human), sequence (Q05655 whole entry, looked up): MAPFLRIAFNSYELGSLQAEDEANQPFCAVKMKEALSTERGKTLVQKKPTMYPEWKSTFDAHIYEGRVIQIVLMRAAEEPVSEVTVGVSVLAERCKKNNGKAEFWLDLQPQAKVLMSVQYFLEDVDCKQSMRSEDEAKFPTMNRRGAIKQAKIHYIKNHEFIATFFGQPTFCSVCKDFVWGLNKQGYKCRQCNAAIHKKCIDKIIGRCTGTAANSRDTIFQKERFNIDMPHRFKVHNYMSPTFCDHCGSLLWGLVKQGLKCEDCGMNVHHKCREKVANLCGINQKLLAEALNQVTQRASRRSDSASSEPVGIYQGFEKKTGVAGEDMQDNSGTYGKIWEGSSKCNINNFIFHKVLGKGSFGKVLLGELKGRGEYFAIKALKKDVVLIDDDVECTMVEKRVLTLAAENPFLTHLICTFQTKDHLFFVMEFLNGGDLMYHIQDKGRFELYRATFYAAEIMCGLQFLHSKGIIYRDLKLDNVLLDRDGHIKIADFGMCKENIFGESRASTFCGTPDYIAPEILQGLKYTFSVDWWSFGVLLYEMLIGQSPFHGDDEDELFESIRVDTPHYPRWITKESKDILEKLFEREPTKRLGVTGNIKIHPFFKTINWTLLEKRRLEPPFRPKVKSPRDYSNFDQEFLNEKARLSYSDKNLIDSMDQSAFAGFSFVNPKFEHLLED
# EPHB2 (human), sequence (P29323 whole entry, looked up): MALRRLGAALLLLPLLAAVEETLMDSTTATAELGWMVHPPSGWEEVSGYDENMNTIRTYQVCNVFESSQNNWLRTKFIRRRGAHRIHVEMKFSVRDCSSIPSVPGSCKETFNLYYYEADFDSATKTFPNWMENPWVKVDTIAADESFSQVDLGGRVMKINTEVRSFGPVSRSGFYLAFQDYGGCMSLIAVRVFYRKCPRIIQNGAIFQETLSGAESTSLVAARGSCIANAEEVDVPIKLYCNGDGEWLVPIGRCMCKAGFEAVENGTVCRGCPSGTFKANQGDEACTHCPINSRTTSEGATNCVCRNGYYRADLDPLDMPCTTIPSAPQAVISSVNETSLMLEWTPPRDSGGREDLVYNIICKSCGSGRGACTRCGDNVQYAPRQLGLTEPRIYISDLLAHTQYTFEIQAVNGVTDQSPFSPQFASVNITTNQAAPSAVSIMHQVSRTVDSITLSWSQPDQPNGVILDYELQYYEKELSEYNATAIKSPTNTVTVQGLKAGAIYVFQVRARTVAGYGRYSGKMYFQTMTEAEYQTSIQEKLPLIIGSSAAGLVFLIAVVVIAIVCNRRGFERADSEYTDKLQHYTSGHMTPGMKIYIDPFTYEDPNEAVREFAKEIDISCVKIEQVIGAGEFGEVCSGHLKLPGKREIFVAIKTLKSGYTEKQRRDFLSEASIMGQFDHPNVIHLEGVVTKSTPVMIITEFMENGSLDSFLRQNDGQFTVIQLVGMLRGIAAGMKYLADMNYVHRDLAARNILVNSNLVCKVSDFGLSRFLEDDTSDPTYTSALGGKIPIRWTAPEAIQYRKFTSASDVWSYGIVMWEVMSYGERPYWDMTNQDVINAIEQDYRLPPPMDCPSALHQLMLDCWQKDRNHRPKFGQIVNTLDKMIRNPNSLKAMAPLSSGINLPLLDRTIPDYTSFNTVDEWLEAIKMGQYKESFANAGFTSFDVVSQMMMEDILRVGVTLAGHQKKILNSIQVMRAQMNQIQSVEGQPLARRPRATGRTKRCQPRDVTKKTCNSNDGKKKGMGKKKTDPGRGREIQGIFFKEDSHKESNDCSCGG
# OXSR1 (human), sequence (O95747 whole entry, looked up): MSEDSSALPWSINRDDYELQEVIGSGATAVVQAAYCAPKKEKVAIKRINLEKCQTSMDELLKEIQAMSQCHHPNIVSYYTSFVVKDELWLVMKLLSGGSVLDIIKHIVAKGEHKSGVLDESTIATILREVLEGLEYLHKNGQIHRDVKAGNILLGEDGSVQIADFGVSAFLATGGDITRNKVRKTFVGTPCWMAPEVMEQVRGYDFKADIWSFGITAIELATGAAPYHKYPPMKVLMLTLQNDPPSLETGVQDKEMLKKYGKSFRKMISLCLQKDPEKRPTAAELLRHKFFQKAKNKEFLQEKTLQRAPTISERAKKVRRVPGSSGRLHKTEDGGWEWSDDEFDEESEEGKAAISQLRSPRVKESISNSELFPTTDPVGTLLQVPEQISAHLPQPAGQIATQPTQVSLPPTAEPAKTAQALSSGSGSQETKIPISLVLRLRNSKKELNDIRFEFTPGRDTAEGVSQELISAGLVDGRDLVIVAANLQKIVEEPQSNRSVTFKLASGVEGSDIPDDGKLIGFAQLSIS
# AURKB (human), sequence (Q96GD4 whole entry, looked up): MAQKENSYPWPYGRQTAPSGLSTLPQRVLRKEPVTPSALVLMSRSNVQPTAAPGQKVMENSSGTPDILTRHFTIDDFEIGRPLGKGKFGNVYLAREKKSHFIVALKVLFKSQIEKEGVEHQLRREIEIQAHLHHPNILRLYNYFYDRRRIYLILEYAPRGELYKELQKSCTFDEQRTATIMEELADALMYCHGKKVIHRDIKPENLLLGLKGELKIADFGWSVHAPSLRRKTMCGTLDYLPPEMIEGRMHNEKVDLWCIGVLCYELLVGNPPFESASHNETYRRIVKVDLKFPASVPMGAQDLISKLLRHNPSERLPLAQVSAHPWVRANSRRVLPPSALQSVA
# SRC (human), sequence (P12931 whole entry, looked up): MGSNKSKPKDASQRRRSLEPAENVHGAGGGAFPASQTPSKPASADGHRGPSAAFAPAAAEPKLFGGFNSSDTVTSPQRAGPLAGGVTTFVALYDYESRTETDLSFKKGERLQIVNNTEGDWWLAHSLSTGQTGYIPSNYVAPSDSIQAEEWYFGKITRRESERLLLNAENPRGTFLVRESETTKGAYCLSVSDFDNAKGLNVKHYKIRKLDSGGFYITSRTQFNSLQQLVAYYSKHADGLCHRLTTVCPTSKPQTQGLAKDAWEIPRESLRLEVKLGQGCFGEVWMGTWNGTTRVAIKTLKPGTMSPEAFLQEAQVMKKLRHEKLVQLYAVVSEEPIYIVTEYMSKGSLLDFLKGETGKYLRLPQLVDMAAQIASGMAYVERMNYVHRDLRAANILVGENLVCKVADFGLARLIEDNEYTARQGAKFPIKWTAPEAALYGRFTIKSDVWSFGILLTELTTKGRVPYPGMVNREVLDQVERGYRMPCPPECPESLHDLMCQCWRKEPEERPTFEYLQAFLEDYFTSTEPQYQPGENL
smiles,measurement,setting,value
CS(=O)(=O)CCNCc1ccc(-c2ccc3ncnc(Nc4ccc(OCc5cccc(F)c5)c(Cl)c4)c3c2)o1,residual activity,[1],83.5%
same,residual activity,[2],81.5%
same,residual activity,[3],98.4%
same,residual activity,[4],95.9%
same,residual activity,[5],98.8%
same,residual activity,[6],95.7%
same,residual activity,[7],90.4%
same,residual activity,[8],104%
same,residual activity,[9],91.2%
same,residual activity,[10],99.4%
same,residual activity,[11],107%
same,residual activity,[12],94.7%
same,residual activity,[13],101%
same,residual activity,[14],101%
same,residual activity,[15],104%
same,residual activity,[16],84.8%
same,residual activity,[17],100%
same,residual activity,[18],105%
same,residual activity,[19],104%
same,residual activity,[20],104%
same,residual activity,[21],98%
same,residual activity,[22],101%
same,residual activity,[23],106%
same,residual activity,[24],106%
same,residual activity,[25],123%
same,residual activity,[26],101%
same,residual activity,[27],84.1%
same,residual activity,[28],96.7%
same,residual activity,[29],108%
same,residual activity,[30],105%
same,residual activity,[31],92%
same,residual activity,[32],102%
same,residual activity,[33],103%
same,residual activity,[34],107%
same,residual activity,[35],104%
same,residual activity,[36],85.9%
same,residual activity,[37],84%
same,residual activity,[38],102%
same,residual activity,[39],102%
same,residual activity,[40],99.4%
same,residual activity,[41],101%
same,residual activity,[42],84.7%
CN(C)CCCn1cc(C2=C(c3c[nH]c4ccccc34)C(=O)NC2=O)c2ccccc21,residual activity,[1],31.5%
same,residual activity,[2],108%
same,residual activity,[3],86.6%
same,residual activity,[4],87%
same,residual activity,[5],90.8%
same,residual activity,[6],90.8%
same,residual activity,[7],80.2%
same,residual activity,[8],96.5%
same,residual activity,[9],97.6%
same,residual activity,[10],96.3%
same,residual activity,[11],87.9%
same,residual activity,[12],94.7%
same,residual activity,[13],54.7%
same,residual activity,[14],100%
same,residual activity,[15],90.9%
same,residual activity,[16],90.9%
same,residual activity,[17],78.1%
same,residual activity,[18],11.2%
same,residual activity,[19],77.5%
same,residual activity,[20],91.3%
same,residual activity,[21],88.7%
same,residual activity,[22],93.9%
same,residual activity,[23],98.9%
same,residual activity,[24],61%
same,residual activity,[25],82.8%
same,residual activity,[26],96.1%
same,residual activity,[27],102%
same,residual activity,[28],93.1%
same,residual activity,[29],73.9%
same,residual activity,[30],97.4%
same,residual activity,[31],78.1%
same,residual activity,[32],64.1%
same,residual activity,[33],4.73%
same,residual activity,[34],38.7%
same,residual activity,[35],86.1%
same,residual activity,[36],118%
same,residual activity,[37],1.4%
same,residual activity,[38],72.8%
same,residual activity,[39],92.6%
same,residual activity,[40],25.1%
same,residual activity,[41],102%
same,residual activity,[42],84.6%
CN(C)S(=O)(=O)c1ccc2c(c1)/C(=C/c1cc3c([nH]1)CCCC3)C(=O)N2,residual activity,[1],96.7%
same,residual activity,[2],16.1%
same,residual activity,[3],11%
same,residual activity,[4],13.9%
same,residual activity,[5],65.4%
same,residual activity,[6],101%
same,residual activity,[7],72.9%
same,residual activity,[8],91.7%
same,residual activity,[9],99.7%
same,residual activity,[10],104%
same,residual activity,[11],102%
same,residual activity,[12],102%
same,residual activity,[13],81.1%
same,residual activity,[14],98.4%
same,residual activity,[15],76.9%
same,residual activity,[16],18.2%
same,residual activity,[17],84.9%
same,residual activity,[18],99.4%
same,residual activity,[19],98.2%
same,residual activity,[20],93.3%
same,residual activity,[21],66.8%
same,residual activity,[22],46.1%
same,residual activity,[23],104%
same,residual activity,[24],57.4%
same,residual activity,[25],37%
same,residual activity,[26],108%
same,residual activity,[27],92.2%
same,residual activity,[28],99.4%
same,residual activity,[29],97.9%
same,residual activity,[30],89.1%
same,residual activity,[31],96.5%
same,residual activity,[32],108%
same,residual activity,[33],95.5%
same,residual activity,[34],95.9%
same,residual activity,[35],33.1%
same,residual activity,[36],97.7%
same,residual activity,[37],52.8%
same,residual activity,[38],98.1%
same,residual activity,[39],23.6%
same,residual activity,[40],13.1%
same,residual activity,[41],95.9%
same,residual activity,[42],13.5%
